Laboratory results from patent publication US20240316059A1, “PEPTIDE DRUG CONJUGATES” (Oncopeptides AB, priority 2021, published 2024).
Read-outs that look alike come from different tables or passages of the source.

Key:
[1] = test system: DNA prepared from MM.1S cells (nuclear HPRT and mitochondrial DNA); assay: Direct DNA damage, PCR amplification of treated DNA (HPRT and mtDNA primers); format: biochemical, human; conditions: 0.25 μM compound, 30 minutes, 37° C., 1 μg DNA
Description: Method: DNA was prepared from MM.1S cells by QIAGEN genomic tip 20/G according to protocol described in Furda et al., Methods Mol Biol, 2012. 1 μg of DNA was treated with 0.25 μM compound for 30 minutes at 37° C. DMSO was used as control treatment. 20 ng of the treated DNA was PCR amplified using Phusion Hot Start II High Fidelity PCR Master Mix (Thermo Scientific) and primers directed to either HPRT or primers directed to mitochondrial DNA (mtDNA) was used, generating 10.4 or 8.9 kb fragments, respectively. The PCR reactions were separated on a 1% agarose gel and visualized by ChemiDoc™ MP Imaging System (BioRad). Example compounds 1, 2 and 38 were investigated, as were compounds 18 and 20, which are metabolites of compound 1. They were compared with bendamustine, melphalan and DMSO control. The results for compounds 1, 2, 18 and 20 with the HPRT primers are shown in FIG. 4(A); the results with the mtDNA primers are shown in FIG. 4(B).

MM.1S cells [2] = assay: In vitro cytotoxic potency in MM.1S cell viability assay (CellTiter-Glo); format: cell-based, human; conditions: Homo sapiens, MM1.S, 72 h
Description: Methods: MM.1S Cells were cultivated in RPMI medium 1640 (IX) supplemented with 10 μg/μL penicillin/streptomycin, 10% heat inactivated FBS, 0.1 mM Sodium Pyruvate, 1×MEM NEAA (ThermoFisher) and 1 mM HEPES. Cells were grown to reach log phase before being exposed to the test compounds.
(§1) Test compounds (Example compounds 1 to 36, 38 to 41 and 45 to 48) and comparative compounds (bendamustine, busulfan, melphalan, chlorambucil and 4-hydroperoxy cyclophosphamide) were dissolved in 100% DMSO and added to a 384 assay plate. Additional DMSO was added to maintain the same final DMSO concentration (0.2%) in all wells. 25 μL cell suspension with a concentration of 100000 cells/mL was added to each well. The cells were cultured in a CO2 incubator at 37° C. for 72 h. Plates were equilibrated to room temperature for 30 minutes before adding 20 μL CellTiter-Glo® 2.0 (Promega) reagent to all wells. The plate was then allowed to stabilize for 20 minutes before recording the luminescence (emission filter 700 nm) in an Envision plate reader.
(§2) All cells were cultivated in RPMI medium 1640 (IX). All media was supplemented with 10 μg/μl penicillin/streptomycin, 10% heat inactivated FBS, 0.1 mM Sodium Pyruvate, 1×MEM NEAA (ThermoFisher) and 1 mM HEPES. The DERL-2 cells had higher FBS (20%) and 40 ng/mL IL-2 was added. hPBMCs were thawed and allowed to acclimatise overnight and then stimulated with 10 μg/mL PHA-M and 40 ng/mL IL-2 for 4 hours before being exposed to test compounds. All cells, except for hPBMCs, were grown to reach log phase before being exposed to the test compounds.
as §1, with “compounds” for “compounds (Example compounds 1 to 36, 38 to 41 and 45 to 48) and comparative compounds (bendamustine, busulfan, melphalan, chlorambucil and 4-hydroperoxy cyclophosphamide)”, “(Em” for “(emission”

MM.1S cells [3] = assay: Cellular retention/efflux: intracellular and extracellular concentrations by LC-MS/MS; format: in vitro ADME, human; conditions: metabolites measured after treatment with the parent Example compound
Description: Methods: MMA1S cells at 2×10^6 cells/mL were seeded at 250 μL per well in a 96-well plate. Cells were incubated in the presence of a test compound for 5, 15, and 60 min before pelleting cells by centrifugation at +4° C. for 5 min. Cell media was immediately harvested to a second plate and stored at −80° C. until further analysis. Pelleted cells were washed once with ice cold PBS before storage at −80° C. until further analysis.
Cells were lysed and protein in the media were precipitated using acetonitrile dimethylformamide, 9:1 containing internal standard. Samples were centrifuged and the supernatant was analyzed with LC-MS/MS (ACQUITY UPLC-Xevo TQ-S micro) to determine compound concentration.
Example compound 1, bendamustine and melphalan were used as test compounds.
Method: Method described in Biological example 3.
Example compounds 1, 2, 3, 4, 6, 7 and 10 were investigated. Intracellular metabolites are formed from all compounds tested. The compound used for cell treatment was metabolised to the ester-hydrolysed compound (here called Metabolite A) and to the amide-hydrolysed compound (called Metabolite B). The example compound structures and the structures of the two metabolites for the respective compounds were as shown in Table 4. The Metabolites B formed under the conditions tested were compounds with structure as Examples 17 and 18: […]

SK-MM-1 = assay: In vitro cytotoxicity, SK-MM-1 (Plasma Cell Leukemia); format: cell-based; conditions: Homo sapiens; 72 h, CellTiter-Glo 2.0; read-out: Cytotoxicity IC50, SK-MM-1
Description: as §2
as §1, with “compounds” for “compounds (Example compounds 1 to 36, 38 to 41 and 45 to 48) and comparative compounds (bendamustine, busulfan, melphalan, chlorambucil and 4-hydroperoxy cyclophosphamide)”, “(Em” for “(emission”

DOHH-2 = assay: In vitro cytotoxicity, DOHH-2 (B Cell Lymphoma); format: cell-based; conditions: Homo sapiens, DOHH-2; 72 h, CellTiter-Glo 2.0; read-out: Cytotoxicity IC50, DOHH-2
Description: as §2
as §1, with “compounds” for “compounds (Example compounds 1 to 36, 38 to 41 and 45 to 48) and comparative compounds (bendamustine, busulfan, melphalan, chlorambucil and 4-hydroperoxy cyclophosphamide)”, “(Em” for “(emission”

HG-3 = assay: In vitro cytotoxicity, HG-3 (Chronic Lymphocytic Leukemia); format: cell-based; conditions: Homo sapiens, HG-3; 72 h, CellTiter-Glo 2.0; read-out: Cytotoxicity IC50, HG-3
Description: as §2
as §1, with “compounds” for “compounds (Example compounds 1 to 36, 38 to 41 and 45 to 48) and comparative compounds (bendamustine, busulfan, melphalan, chlorambucil and 4-hydroperoxy cyclophosphamide)”, “(Em” for “(emission”

RPMI-8226 = assay: In vitro cytotoxicity, RPMI-8226 (Multiple Myeloma, resistant); format: cell-based; conditions: Homo sapiens, RPMI-8226; 72 h, CellTiter-Glo 2.0; read-out: Cytotoxicity IC50, RPMI-8226
Description: as §2
as §1, with “compounds” for “compounds (Example compounds 1 to 36, 38 to 41 and 45 to 48) and comparative compounds (bendamustine, busulfan, melphalan, chlorambucil and 4-hydroperoxy cyclophosphamide)”, “(Em” for “(emission”

Toledo = assay: In vitro cytotoxicity, Toledo (Diffuse Large B Cell Lymphoma); format: cell-based; conditions: Homo sapiens, 72 h, CellTiter-Glo 2.0, read-out: Cytotoxicity IC50, Toledo
Description: as §2
as §1, with “compounds” for “compounds (Example compounds 1 to 36, 38 to 41 and 45 to 48) and comparative compounds (bendamustine, busulfan, melphalan, chlorambucil and 4-hydroperoxy cyclophosphamide)”, “(Em” for “(emission”

SU-DHL-8 = assay: In vitro cytotoxicity, SU-DHL-8 (B-cell non-Hodgkin Lymphoma); format: cell-based; conditions: Homo sapiens, SU-DHL-8; 72 h, CellTiter-Glo 2.0; read-out: Cytotoxicity IC50, SU-DHL-8
Description: as §2
as §1, with “compounds” for “compounds (Example compounds 1 to 36, 38 to 41 and 45 to 48) and comparative compounds (bendamustine, busulfan, melphalan, chlorambucil and 4-hydroperoxy cyclophosphamide)”, “(Em” for “(emission”

U937 = assay: In vitro cytotoxicity, U937 (Histiocytic Lymphoma); format: cell-based; conditions: Homo sapiens, U-937; 72 h, CellTiter-Glo 2.0; read-out: Cytotoxicity IC50, U937
Description: as §2
as §1, with “compounds” for “compounds (Example compounds 1 to 36, 38 to 41 and 45 to 48) and comparative compounds (bendamustine, busulfan, melphalan, chlorambucil and 4-hydroperoxy cyclophosphamide)”, “(Em” for “(emission”

SC-1 = assay: In vitro cytotoxicity, SC-1 (B cell Lymphoma); format: cell-based; conditions: Homo sapiens, SC-1; 72 h, CellTiter-Glo 2.0; read-out: Cytotoxicity IC50, SC-1
Description: as §2
as §1, with “compounds” for “compounds (Example compounds 1 to 36, 38 to 41 and 45 to 48) and comparative compounds (bendamustine, busulfan, melphalan, chlorambucil and 4-hydroperoxy cyclophosphamide)”, “(Em” for “(emission”

SMILES	IC50 (MM.1S cells [2]; read-out: MM.1S IC50) [nM]	other results
Cn1c(CC[C@H](N)C(=O)O)nc2cc(N(CCCl)CCCl)ccc21 [Example 18, (S)-2-amino-4-(5-(bis(2-chloroethyl)amino)-1-methyl-1H-benzo[d]imidazol-2-yl)butanoic acid]	20200	DNA damage on nuclear and mitochondrial DNA (PCR band) [1]: effectively damaged both nuclear and mitochondrial DNA; Intracellular concentration (in words) (MM.1S cells [3]; MM.1S cells incubated with test compound 5, 15, 60 min): rapidly formed inside the cells; Extracellular concentration (in words) (MM.1S cells [3]; media of MM.1S cells incubated with test compound 5, 15, 60 min): low levels of it are found in the media outside the cells
CC(C)C[C@H](NC(=O)[C@@H](N)CCc1nc2cc(N(CCCl)CCCl)ccc2n1C)C(=O)O [Example 20, (2S)-2-[[(2S)-2-amino-4-[5-[bis(2-chloroethyl)amino]-1-methyl-benzimidazol-2-yl]butanoyl]amino]-4-methyl-pentanoic acid]	5750	DNA damage on nuclear and mitochondrial DNA (PCR band) [1]: DNA damaging effect but to a lesser degree compared to Example compounds 1, 2 and 18
CNC(=O)[C@H](CC(C)C)NC(=O)[C@@H](N)CCc1nc2cc(N(CCCl)CCCl)ccc2n1C [Example 31, (2S)-2-[[(2S)-2-amino-4-[5-[bis(2-chloroethyl)amino]-1-methyl-benzimidazol-2-yl]butanoyl]amino]-N,4-dimethyl-pentanamide]	181	
CCOC(=O)[C@H](CC(C)C)NC(=O)[C@H](CCc1nc2cc(N(CCCl)CCCl)ccc2n1C)NC [Example 32, Ethyl (2S)-2-[[(2S)-4-[5-[bis(2-chloroethyl)amino]-1-methyl-benzimidazol-2-yl]-2-(methylamino)butanoyl]amino]-4-methyl-pentanoate]	14.3	
CN[C@@H](CCc1nc2cc(N(CCCl)CCCl)ccc2n1C)C(=O)N[C@@H](CC(C)C)C(=O)O [Example 33, (2S)-2-[[(2S)-4-[5-[bis(2-chloroethyl)amino]-1-methyl-benzimidazol-2-yl]-2-(methylamino)butanoyl]amino]-4-methyl-pentanoic acid]	79900	
CCOC(=O)[C@H](CC(C)C)NC(=O)[C@H](Cc1nc2cc(N(CCCl)CCCl)ccc2n1C)NC(C)=O [Example 35, Ethyl (2S)-2-[[(2S)-2-acetamido-3-[5-[bis(2-chloroethyl)amino]-1-methyl-benzimidazol-2-yl]propanoyl]amino]-4-methyl-pentanoate]	86.7	
CCOC(=O)[C@H](Cc1ccc(F)cc1)NC(=O)[C@H](Cc1nc2cc(N(CCCl)CCCl)ccc2n1C)NC(C)=O [Example 36, Ethyl (2S)-2-[[(2S)-2-acetamido-3-[5-[bis(2-chloroethyl)amino]-1-methyl-benzimidazol-2-yl]propanoyl]amino]-3-(4-fluorophenyl)propanoate]	57.5	
CCOC(=O)[C@@H](N)CCc1nc2cc(N(CCCl)CCCl)ccc2n1C.Cl.Cl [Example 38, Ethyl (2S)-2-amino-4-[5-[bis(2-chloroethyl)amino]-1-methyl-benzimidazol-2-yl]butanoate]	52	IC50 (SK-MM-1): 175 nM; IC50 (DOHH-2): 28.1 nM; IC50 (HG-3): 49.8 nM; DNA damage on nuclear and mitochondrial DNA (PCR band) [1]: effectively damaged both nuclear and mitochondrial DNA; IC50 (RPMI-8226): 676 nM; IC50 (Toledo): 16.2 nM; IC50 (SU-DHL-8): 71.4 nM; IC50 (U937): 25.3 nM; IC50 (MM.1S cells [2]; read-out: Cytotoxicity IC50, MM.1S): 52 nM; IC50 (SC-1): 77.2 nM
Cn1c(CC[C@H](N)C(=O)N[C@@H](Cc2ccc(F)cc2)C(=O)O)nc2cc(N(CCCl)CCCl)ccc21 [Example 39, (2S)-2-[[(2S)-2-Amino-4-[5-[bis(2-chloroethyl)amino]-1-methyl-benzimidazol-2-yl]butanoyl]amino]-3-(4-fluorophenyl)propanoic acid]	> 2000	
CC(C)C[C@H](NC(=O)[C@@H](N)CCc1nc2cc(N(CCCl)CCCl)ccc2n1-c1ccccc1)C(=O)O [Example 40, (2S)-2-[[(2S)-2-Amino-4-[5-[bis(2-chloroethyl)amino]-1-phenyl-benzimidazol-2-yl]butanoyl]amino]-4-methyl-pentanoic acid]	7180	
N[C@@H](CCc1nc2cc(N(CCCl)CCCl)ccc2n1-c1ccccc1)C(=O)O [Example 41, (2S)-2-Amino-4-[5-[bis(2-chloroethyl)amino]-1-phenyl-benzimidazol-2-yl]butanoic acid]	16500	
CCOC(=O)[C@@H](CC(C)C)NC(=O)[C@@H](N)CCc1nc2cc(N(CCCl)CCCl)ccc2n1C [Example 45, Ethyl (2R)-2-[[(2S)-2-amino-4-[5-[bis(2-chloroethyl)amino]-1-methyl-benzimidazol-2-yl]butanoyl]amino]-4-methyl-pentanoate]	512	
CCOC(=O)[C@H](CC(C)C)NC(=O)[C@H](N)CCc1nc2cc(N(CCCl)CCCl)ccc2n1C [Example 46, Ethyl (2S)-2-[[(2R)-2-amino-4-[5-[bis(2-chloroethyl)amino]-1-methyl-benzimidazol-2-yl]butanoyl]amino]-4-methyl-pentanoate]	59.1	
CCOC(=O)[C@@H](CC(C)C)NC(=O)[C@H](N)CCc1nc2cc(N(CCCl)CCCl)ccc2n1C [Example 47, Ethyl (2R)-2-[[(2R)-2-amino-4-[5-[bis(2-chloroethyl)amino]-1-methyl-benzimidazol-2-yl]butanoyl]amino]-4-methyl-pentanoate]	1710	
CCOC(=O)[C@H](CC(C)C)NC(=O)[C@@H](N)CCc1nc2cc(N(CCCl)CCCl)cnc2n1C [Example 48, Ethyl (2S)-2-[[(2S)-2-amino-4-[6-[bis(2-chloroethyl)amino]-3-methyl-imidazo[4,5-b]pyridin-2-yl]butanoyl]amino]-4-methyl-pentanoate]	205	
